One assay concerns the target T1, AbaBauA (Acinetobacter baumannii, UniProt Q76HJ9).
T1 sequence (Q76HJ9 23-725): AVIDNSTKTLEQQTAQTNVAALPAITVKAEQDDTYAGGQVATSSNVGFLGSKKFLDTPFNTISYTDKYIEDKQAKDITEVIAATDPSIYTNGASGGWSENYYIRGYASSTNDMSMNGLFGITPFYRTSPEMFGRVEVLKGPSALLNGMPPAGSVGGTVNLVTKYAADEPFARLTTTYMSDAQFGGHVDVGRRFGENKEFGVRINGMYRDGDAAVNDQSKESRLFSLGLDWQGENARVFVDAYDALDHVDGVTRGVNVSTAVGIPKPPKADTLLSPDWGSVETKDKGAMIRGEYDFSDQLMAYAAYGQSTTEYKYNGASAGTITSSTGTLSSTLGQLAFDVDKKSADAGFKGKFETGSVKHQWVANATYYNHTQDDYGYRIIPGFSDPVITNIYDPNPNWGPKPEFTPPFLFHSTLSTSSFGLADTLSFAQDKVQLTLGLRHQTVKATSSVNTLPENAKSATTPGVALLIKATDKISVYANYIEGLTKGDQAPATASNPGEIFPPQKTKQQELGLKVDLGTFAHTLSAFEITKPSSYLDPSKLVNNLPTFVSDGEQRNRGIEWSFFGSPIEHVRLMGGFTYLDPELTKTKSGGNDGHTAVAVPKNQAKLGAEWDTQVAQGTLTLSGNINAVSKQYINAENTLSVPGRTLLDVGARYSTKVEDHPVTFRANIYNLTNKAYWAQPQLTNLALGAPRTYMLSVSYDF
The following applies: AbaBauA sensor; NB = no binding; read-out: apparent KD.

In the next assay the target is T2, EcoFiu (Fiu_A694C-FM) (Escherichia coli, UniProt P75780, A694C).
T2 sequence (P75780 32-760 A694C): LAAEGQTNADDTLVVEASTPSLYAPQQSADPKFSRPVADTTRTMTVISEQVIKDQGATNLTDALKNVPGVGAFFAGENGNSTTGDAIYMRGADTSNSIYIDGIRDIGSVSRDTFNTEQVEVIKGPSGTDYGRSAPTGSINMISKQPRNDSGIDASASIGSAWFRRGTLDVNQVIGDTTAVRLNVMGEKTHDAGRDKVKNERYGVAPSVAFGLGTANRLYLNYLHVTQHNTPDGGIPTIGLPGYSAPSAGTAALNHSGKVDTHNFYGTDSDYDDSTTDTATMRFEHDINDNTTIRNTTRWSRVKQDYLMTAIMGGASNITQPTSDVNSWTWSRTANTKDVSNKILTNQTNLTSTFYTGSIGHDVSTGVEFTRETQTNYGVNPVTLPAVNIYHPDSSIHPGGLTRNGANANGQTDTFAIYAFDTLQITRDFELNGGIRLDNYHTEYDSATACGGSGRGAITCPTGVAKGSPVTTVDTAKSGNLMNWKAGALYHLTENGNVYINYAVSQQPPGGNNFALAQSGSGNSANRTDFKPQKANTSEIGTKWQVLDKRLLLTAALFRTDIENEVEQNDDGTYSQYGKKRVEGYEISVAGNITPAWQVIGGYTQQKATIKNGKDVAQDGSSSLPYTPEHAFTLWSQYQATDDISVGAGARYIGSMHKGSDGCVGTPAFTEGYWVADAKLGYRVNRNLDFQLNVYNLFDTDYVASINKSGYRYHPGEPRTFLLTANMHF
Briefly: biochemical. Format: binding.

The next assay has as its target T3, AbaPiuA (Acinetobacter baumannii, UniProt D0CAH3).
T3 sequence (D0CAH3 29-743): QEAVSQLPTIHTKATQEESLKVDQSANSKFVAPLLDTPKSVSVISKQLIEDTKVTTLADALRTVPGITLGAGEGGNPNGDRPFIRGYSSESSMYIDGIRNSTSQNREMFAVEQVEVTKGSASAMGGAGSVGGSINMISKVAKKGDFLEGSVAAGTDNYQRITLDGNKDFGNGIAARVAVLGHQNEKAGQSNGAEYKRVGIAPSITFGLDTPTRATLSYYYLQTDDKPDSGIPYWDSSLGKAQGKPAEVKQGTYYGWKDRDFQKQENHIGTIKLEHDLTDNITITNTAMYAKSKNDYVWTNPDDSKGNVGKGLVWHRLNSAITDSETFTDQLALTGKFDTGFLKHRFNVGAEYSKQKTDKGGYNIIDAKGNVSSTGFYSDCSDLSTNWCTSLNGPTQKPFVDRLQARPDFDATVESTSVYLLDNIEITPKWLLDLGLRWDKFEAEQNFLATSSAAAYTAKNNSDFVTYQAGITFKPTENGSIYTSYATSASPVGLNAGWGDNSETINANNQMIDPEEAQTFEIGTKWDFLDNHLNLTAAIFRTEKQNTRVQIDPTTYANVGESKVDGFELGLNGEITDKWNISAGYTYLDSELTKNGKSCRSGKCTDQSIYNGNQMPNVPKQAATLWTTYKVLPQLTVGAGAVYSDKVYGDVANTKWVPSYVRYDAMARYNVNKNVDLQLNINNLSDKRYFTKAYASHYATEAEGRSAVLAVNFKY
The following applies: read-out: apparent KD; AbaPiuA sensor; NB = no binding.

The target of a further assay is T4, AbaPirA (Acinetobacter baumannii, UniProt D0C8V9).
T4 sequence (D0C8V9 25-754): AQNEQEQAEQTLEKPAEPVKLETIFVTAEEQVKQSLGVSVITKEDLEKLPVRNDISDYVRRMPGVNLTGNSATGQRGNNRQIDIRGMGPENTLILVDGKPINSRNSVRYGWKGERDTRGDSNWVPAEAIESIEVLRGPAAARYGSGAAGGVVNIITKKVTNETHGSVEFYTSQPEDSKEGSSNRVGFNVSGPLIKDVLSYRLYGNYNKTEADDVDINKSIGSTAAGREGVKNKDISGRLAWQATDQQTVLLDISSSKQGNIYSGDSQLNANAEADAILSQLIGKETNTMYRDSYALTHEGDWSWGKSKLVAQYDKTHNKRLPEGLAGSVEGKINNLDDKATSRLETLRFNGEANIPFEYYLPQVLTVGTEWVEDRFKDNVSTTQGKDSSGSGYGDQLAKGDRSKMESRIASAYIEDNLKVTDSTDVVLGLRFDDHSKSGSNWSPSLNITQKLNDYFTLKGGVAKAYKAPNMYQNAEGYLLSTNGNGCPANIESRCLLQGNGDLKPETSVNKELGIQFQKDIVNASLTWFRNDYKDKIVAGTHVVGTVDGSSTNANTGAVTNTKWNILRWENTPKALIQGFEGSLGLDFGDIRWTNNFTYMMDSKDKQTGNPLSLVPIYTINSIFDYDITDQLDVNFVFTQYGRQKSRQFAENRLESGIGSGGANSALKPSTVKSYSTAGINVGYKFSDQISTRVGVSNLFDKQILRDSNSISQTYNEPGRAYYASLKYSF
The following applies: read-out: apparent KD; AbaPirA sensor; NB = no binding.

The target of another assay is T5, Fiu N554C-FM (Escherichia coli, UniProt P75780, N554C).
T5 sequence (P75780 32-760 N554C): T2 sequence (P75780 32-760 A694C) with N523C, C663A
Type of assay: binding. The following applies: Fiu Cys mutant N554C-FM (positive control); read-out: Affinity: apparent KD.

In assay [1] the test system is OKN359/pFiu Fiu^+, FepA^−, Cir-. The following applies: summary in words; strains exclusively expressing Fiu.
In assay [2] the test system is OKN359/pFepA Fiu^−, FepA^+, Cir-. The following applies: summary in words.
The next assay has as its target EcoFepA. Format: binding, Escherichia coli. The following applies: read-out: apparent KD.
The next assay deals with EcoCir (Escherichia coli, UniProt P17315). Format: binding.
The subject of assay [3] is OKN359/pCir Fiu^−, FepA^−, Cir^+. The following applies: summary in words.
[4] abbreviates: apparent KD, EcoFiu sensor (Fiu_A694C-FM; FeDHBA with Fiu_N554C-FM), NB = no binding.

Where a chain is given by its changes, count along the chain named. Several values for one entry are separate records, joined by “and”; a condition that tells them apart may be missing. Identical values can stand only once. Like-named read-outs stand apart in the source and are kept apart here.

The record followed here is paper PMC11005823 (Frontiers in Microbiology, 2024).

Sequence of EcoCir (P17315 26-663): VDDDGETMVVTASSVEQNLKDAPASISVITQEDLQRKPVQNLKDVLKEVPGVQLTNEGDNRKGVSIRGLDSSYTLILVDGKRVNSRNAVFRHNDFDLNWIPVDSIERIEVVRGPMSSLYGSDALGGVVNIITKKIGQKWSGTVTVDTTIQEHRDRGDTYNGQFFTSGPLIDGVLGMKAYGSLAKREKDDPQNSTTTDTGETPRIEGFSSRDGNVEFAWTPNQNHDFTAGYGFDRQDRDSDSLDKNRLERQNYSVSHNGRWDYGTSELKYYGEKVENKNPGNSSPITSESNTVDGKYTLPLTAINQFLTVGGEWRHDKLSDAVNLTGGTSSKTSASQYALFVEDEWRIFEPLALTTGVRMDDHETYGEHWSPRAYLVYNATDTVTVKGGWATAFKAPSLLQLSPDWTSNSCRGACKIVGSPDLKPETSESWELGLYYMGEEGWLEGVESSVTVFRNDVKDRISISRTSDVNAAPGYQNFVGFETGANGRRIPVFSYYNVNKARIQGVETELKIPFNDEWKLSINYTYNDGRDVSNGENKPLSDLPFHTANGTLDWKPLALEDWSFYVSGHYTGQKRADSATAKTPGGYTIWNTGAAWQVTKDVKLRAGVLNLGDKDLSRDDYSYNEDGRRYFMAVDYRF

Take ferric acinetobactin [FeAgn]: the Kd at AbaBauA amounted to 2100 ± 400 nM.

For `O=C(O)c1cccc(O)c1O.O=C(O)c1cccc(O)c1O.O=C(O)c1cccc(O)c1O.[Fe+3]` [FeDHBA], at EcoFiu (Fiu_A694C-FM) (Fiu_A694C-FM), the “fluorescence quenching at site A694C-FM” value is listed as “did not observe significant quenching”. Further, the Kd at EcoFiu (Fiu_A694C-FM) (setting [4]) was found to be 700 ± 100 nM; at AbaPiuA, 15000 ± 3000 nM; at AbaPirA, 9400 ± 900 nM; at Fiu N554C-FM it was 700 nM. Also, the “transport by Fiu” value in assay [1] was “did not utilize”. The “transport by FepA” value in assay [2] is listed as “transported”.

Regarding `O=C(N[C@@H](CO)C(=O)O)c1cccc(O)c1O.O=C(N[C@@H](CO)C(=O)O)c1cccc(O)c1O.O=C(N[C@@H](CO)C(=O)O)c1cccc(O)c1O.[Fe+3]` [FeDHBS], the Kd on EcoFepA is 1600 ± 300 nM; at EcoFiu (Fiu_A694C-FM) (setting [4]), 100 nM and ~100 nM; on EcoFiu (Fiu_A694C-FM) (apparent KD, EcoFiu sensor, value marked ^1), 90 ± 0.2 nM; at EcoCir (read-out: apparent KD, EcoCir sensor, NB = no binding) it was 7200 ± 900 nM; at AbaPirA, 161000 ± 40000 nM. In addition, the “transport by Fiu” value in assay [1] was “did not utilize”. Also, in assay [3], the “transport by Cir” value is on record as “weakly”.

For the molecule `CC(C)(O/N=C(\C(=O)N[C@@H]1C(=O)N2C(C(=O)[O-])=C(C[N+]3(CCNC(=O)c4ccc([O-])c([O-])c4Cl)CCCC3)CS[C@H]12)c1csc(N)n1)C(=O)O.[Fe+3]` [FeFDC], the “susceptibility of cells expressing only FepA” value in [2] was “not susceptible”.

`O=C(N[C@@H](CO)C(=O)OC[C@H](NC(=O)c1cccc(O)c1[O-])C(=O)O)c1cccc([O-])c1[O-].[Fe+3]` [FeEnt*, Fe(DHBS)2]: the Kd on EcoFiu (Fiu_A694C-FM) (setting [4]) came out at 740 nM.

In the case of `CC(C)(O/N=C(\C(=O)N[C@@H]1C(=O)N2C(C(=O)O)=C(C[N+]3(CCNC(=O)c4ccc(O)c(O)c4Cl)CCCC3)CS[C@H]12)c1csc(N)n1)C(=O)O.[Fe+3]` [FeFDC], the Kd on EcoFiu (Fiu_A694C-FM) (setting [4]) turned out to be 500 nM; on EcoFiu (Fiu_A694C-FM) (read-out: apparent KD, EcoFiu sensor (Fiu_A694C-FM; FeDHBA with Fiu_N554C-FM), NB = no binding) it was 400 ± 500 nM; on EcoCir (Cir), 60 nM; at EcoCir (read-out: apparent KD, EcoCir sensor, value marked ^1) it was 63 ± 6 nM; on AbaPirA it was 6200 ± 2300 nM.
